Reference: PMC7418496, “In Kluyveromyces lactis a Pair of Paralogous Isozymes Catalyze the First Committed Step of Leucine Biosynthesis in Either the Mitochondria or the Cytosol” (Frontiers in Microbiology, 2020)

Experiments:
[1] = target: T1, KlLeu4 (Kluyveromyces lactis, UniProt Q6CIW1); assay: initial velocity inhibition kinetics, global fit; type: biochemical; conditions: read-out: Kis /
T1 construct: gene KLLA0_F23529g; expressed in E. coli BL21(DE3), Ni-NTA purified (tag not described); homodimer
T1 sequence (Q6CIW1 1-609): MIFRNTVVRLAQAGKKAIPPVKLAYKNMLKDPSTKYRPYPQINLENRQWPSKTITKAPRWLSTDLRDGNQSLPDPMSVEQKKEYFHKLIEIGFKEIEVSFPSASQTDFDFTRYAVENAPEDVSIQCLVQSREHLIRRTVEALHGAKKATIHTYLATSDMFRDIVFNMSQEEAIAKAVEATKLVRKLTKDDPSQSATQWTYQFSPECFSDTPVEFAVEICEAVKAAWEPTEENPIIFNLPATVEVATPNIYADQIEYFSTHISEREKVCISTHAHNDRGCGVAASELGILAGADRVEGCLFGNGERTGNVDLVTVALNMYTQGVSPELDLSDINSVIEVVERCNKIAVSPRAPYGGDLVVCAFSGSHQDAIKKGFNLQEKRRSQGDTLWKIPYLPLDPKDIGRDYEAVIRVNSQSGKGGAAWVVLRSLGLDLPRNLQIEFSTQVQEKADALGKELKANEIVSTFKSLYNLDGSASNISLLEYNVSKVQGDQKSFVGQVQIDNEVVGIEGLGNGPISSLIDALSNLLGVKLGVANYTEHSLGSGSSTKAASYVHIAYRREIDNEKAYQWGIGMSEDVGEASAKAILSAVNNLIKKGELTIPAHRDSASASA
Source text: initial velocity inhibition kinetics, global fit on KlLeu4

[2] = target: T2, KlLeu4 (Kluyveromyces lactis, UniProt Q6CIW1); assay: α-IPMS activity in whole cell extract, DTNB assay […] nm; type: biochemical; conditions: 0.25 mM acetyl-CoA, 10 mM α-KIV, 50 mM phosphate pH 7.5, 140 mM KCl, 4 mM MgCl2, 30 °C
T2 construct: gene KLLA0_F23529g; native untagged enzyme in whole cell extract of the Klleu4bisΔ single mutant; homodimer

[3] = target: T3, KlLeu4BIS (Kluyveromyces lactis, UniProt Q6CQU3); assay: initial velocity inhibition kinetics, global fit; type: biochemical; conditions: read-out: Kis /
T3 construct: gene KLLA0_D14201g; expressed in E. coli Rosetta 2 (DE3), Ni-NTA purified (tag not described); homodimer
T3 sequence (Q6CQU3 1-583): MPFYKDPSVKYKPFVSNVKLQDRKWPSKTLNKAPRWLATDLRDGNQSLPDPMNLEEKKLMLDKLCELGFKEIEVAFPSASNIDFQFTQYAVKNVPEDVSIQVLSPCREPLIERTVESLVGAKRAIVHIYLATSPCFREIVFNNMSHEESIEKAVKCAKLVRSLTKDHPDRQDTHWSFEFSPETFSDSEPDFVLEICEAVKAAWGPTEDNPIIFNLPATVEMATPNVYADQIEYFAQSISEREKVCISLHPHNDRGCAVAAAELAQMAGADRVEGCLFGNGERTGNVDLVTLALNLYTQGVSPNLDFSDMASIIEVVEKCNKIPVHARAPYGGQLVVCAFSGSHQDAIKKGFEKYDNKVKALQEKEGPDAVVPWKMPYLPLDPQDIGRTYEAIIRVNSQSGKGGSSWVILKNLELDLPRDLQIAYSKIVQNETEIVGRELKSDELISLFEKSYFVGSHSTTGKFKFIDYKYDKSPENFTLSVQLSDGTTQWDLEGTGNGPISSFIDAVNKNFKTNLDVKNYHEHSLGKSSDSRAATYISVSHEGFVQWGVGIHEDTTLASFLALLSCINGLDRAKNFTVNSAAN
Source text: initial velocity inhibition kinetics, global fit on KlLeu4BIS

[4] = target: T4, KlLeu4BIS (Kluyveromyces lactis, UniProt Q6CQU3); assay: α-IPMS activity in whole cell extract, DTNB assay […] nm; type: biochemical; conditions: 0.25 mM acetyl-CoA, 10 mM α-KIV, 50 mM phosphate pH 7.5, 140 mM KCl, 4 mM MgCl2, 30 °C
T4 construct: gene KLLA0_D14201g; native untagged enzyme in whole cell extract of the Klleu4Δ single mutant; homodimer

[5] = target: T3, KlLeu4BIS; assay: initial velocity kinetics from kinetic global fit, ordered bi-bi; type: biochemical; conditions: kinetic dissociation constant; varied with α-KIV 0.01–0.25 mM; 50 mM phosphate pH 7.5, 140 mM KCl, 4 mM MgCl2, 30 °C, DTNB; read-out: Kia /
Source text: initial velocity kinetics from kinetic global fit, ordered bi-bi on KlLeu4BIS

[6] = target: T1, KlLeu4; assay: as above; type: biochemical; conditions: kinetic dissociation constant; varied with α-KIV 0.002–0.08 mM; 50 mM phosphate pH 7.5, 140 mM KCl, 4 mM MgCl2, 30 °C, DTNB; read-out: Kia /
Source text: initial velocity kinetics from kinetic global fit, ordered bi-bi on KlLeu4

[7] = substrate: CC(C)C(=O)C(=O)O; assay: initial velocity kinetics, global fit, ordered bi-bi; type: biochemical, Kluyveromyces lactis; conditions: acetyl-CoA co-varied 0.008–0.1 mM, 50 mM phosphate pH 7.5, 140 mM KCl, 4 mM MgCl2, 30 °C, DTNB
Source text: (§1) initial velocity kinetics, global fit, ordered bi-bi on KlLeu4BIS

[8] = substrate: CC(=O)SCCNC(=O)CCNC(=O)[C@H](O)C(C)(C)COP(=O)(O)OP(=O)(O)OC[C@H]1O[C@@H](n2cnc3c(N)ncnc32)[C@H](O)[C@@H]1OP(=O)(O)O; assay: as above; type: biochemical, Kluyveromyces lactis; conditions: α-KIV co-varied 0.01–0.25 mM, 50 mM phosphate pH 7.5, 140 mM KCl, 4 mM MgCl2, 30 °C, DTNB
Source text: as §1

[9] = substrate: CC(C)C(=O)C(=O)O; assay: as above; type: biochemical, Kluyveromyces lactis; conditions: acetyl-CoA co-varied 0.002–0.1 mM, 50 mM phosphate pH 7.5, 140 mM KCl, 4 mM MgCl2, 30 °C, DTNB
Source text: (§2) initial velocity kinetics, global fit, ordered bi-bi on KlLeu4

[10] = substrate: CC(=O)SCCNC(=O)CCNC(=O)[C@H](O)C(C)(C)COP(=O)(O)OP(=O)(O)OC[C@H]1O[C@@H](n2cnc3c(N)ncnc32)[C@H](O)[C@@H]1OP(=O)(O)O; assay: as above; type: biochemical, Kluyveromyces lactis; conditions: α-KIV co-varied 0.002–0.08 mM, 50 mM phosphate pH 7.5, 140 mM KCl, 4 mM MgCl2, 30 °C, DTNB
Source text: as §2

**Q.** With `CC(C)C[C@H](N)C(=O)O` [leucine] as the molecule, how does the Ki [1] read?
**A.** 34 ± 11 µM

**Q.** What about the IC50 [2] of the same molecule?
**A.** 20 µM

**Q.** What about the Ki [3] of the same molecule?
**A.** 31 ± 8 µM

**Q.** And the IC50 [4]?
**A.** 37 µM

**Q.** What does the source list for `CC(=O)SCCNC(=O)CCNC(=O)[C@H](O)C(C)(C)COP(=O)(O)OP(=O)(O)OC[C@H]1O[C@@H](n2cnc3c(N)ncnc32)[C@H](O)[C@@H]1OP(=O)(O)O` [acetyl coenzyme A]?
**A.** Kd [5]: 12 ± 7 µM; Kd [6]: 17 ± 5 µM

B1: KlLeu4BIS (Kluyveromyces lactis NRRL Y-1140) (protein)
chain: MPFYKDPSVKYKPFVSNVKLQDRKWPSKTLNKAPRWLATDLRDGNQSLPDPMNLEEKKLMLDKLCELGFKEIEVAFPSASNIDFQFTQYAVKNVPEDVSIQVLSPCREPLIERTVESLVGAKRAIVHIYLATSPCFREIVFNNMSHEESIEKAVKCAKLVRSLTKDHPDRQDTHWSFEFSPETFSDSEPDFVLEICEAVKAAWGPTEDNPIIFNLPATVEMATPNVYADQIEYFAQSISEREKVCISLHPHNDRGCAVAAAELAQMAGADRVEGCLFGNGERTGNVDLVTLALNLYTQGVSPNLDFSDMASIIEVVEKCNKIPVHARAPYGGQLVVCAFSGSHQDAIKKGFEKYDNKVKALQEKEGPDAVVPWKMPYLPLDPQDIGRTYEAIIRVNSQSGKGGSSWVILKNLELDLPRDLQIAYSKIVQNETEIVGRELKSDELISLFEKSYFVGSHSTTGKFKFIDYKYDKSPENFTLSVQLSDGTTQWDLEGTGNGPISSFIDAVNKNFKTNLDVKNYHEHSLGKSSDSRAATYISVSHEGFVQWGVGIHEDTTLASFLALLSCINGLDRAKNFTVNSAAN
notes: expressed in E. coli Rosetta 2 (DE3), Ni-NTA purified (tag not described); homodimer
**Q.** B1 was tested. Which Km [7] did it give?
**A.** 0.055 ± 0.013 mM

**Q.** What about the Km [8] of the same molecule?
**A.** 0.019 ± 0.005 mM

B2: KlLeu4 (Kluyveromyces lactis NRRL Y-1140) (protein)
chain: MIFRNTVVRLAQAGKKAIPPVKLAYKNMLKDPSTKYRPYPQINLENRQWPSKTITKAPRWLSTDLRDGNQSLPDPMSVEQKKEYFHKLIEIGFKEIEVSFPSASQTDFDFTRYAVENAPEDVSIQCLVQSREHLIRRTVEALHGAKKATIHTYLATSDMFRDIVFNMSQEEAIAKAVEATKLVRKLTKDDPSQSATQWTYQFSPECFSDTPVEFAVEICEAVKAAWEPTEENPIIFNLPATVEVATPNIYADQIEYFSTHISEREKVCISTHAHNDRGCGVAASELGILAGADRVEGCLFGNGERTGNVDLVTVALNMYTQGVSPELDLSDINSVIEVVERCNKIAVSPRAPYGGDLVVCAFSGSHQDAIKKGFNLQEKRRSQGDTLWKIPYLPLDPKDIGRDYEAVIRVNSQSGKGGAAWVVLRSLGLDLPRNLQIEFSTQVQEKADALGKELKANEIVSTFKSLYNLDGSASNISLLEYNVSKVQGDQKSFVGQVQIDNEVVGIEGLGNGPISSLIDALSNLLGVKLGVANYTEHSLGSGSSTKAASYVHIAYRREIDNEKAYQWGIGMSEDVGEASAKAILSAVNNLIKKGELTIPAHRDSASASA
notes: expressed in E. coli BL21(DE3), Ni-NTA purified (tag not described); homodimer
**Q.** Which results are given for B2?
**A.** Km [9]: 0.025 ± 0.003 mM; Km [10]: 0.026 ± 0.003 mM
